Assay results published in patent publication US20060111286A1, “Method of modulating endothelial cell activity” (priority 2002, published 2006).
Entries after “also recorded” stand apart in the source; their conditions may differ. Where two headings read alike, the source gives them in different places.

Assays:
[1] = tested on: human umbilical vein endothelial cells; experiment: Endothelial permeability assay: passage of FITC-conjugated dextran through thrombin-treated endothelial cell monolayers in transwells; assay type: cell-based; conditions: then thrombin 0.2 U/ml
Protocol: Cells were used at passage 4 or less. For infection with adenoviral constructs, cells were grown to 80% confluence and exposed to 2.5×10^6 plaque forming units/25 cm^2 culture area for 2 hours in M119 medium with 2% FCS and a further 22 hours with 20% FCS.
Endothelial cells (10^5) were cultured in transwells (3 μ-pore size, Corning Costar Corp, Cambridge, Mass., USA) for 24 hours in complete medium and then in 2% FCS medium for a further 24 hours. Cells were pre-treated with either bisindolylmaleimide I (10 nM or 6 μM), Calphostin C (100 nM), chelerythrine chloride (1 μM), H-89 (50 nM) or angiopoietin-1 (0.1 μg/ml), as required. FITC-conjugated dextran (0.2 μg) was added to the upper chamber of all wells and cells were then treated with thrombin (0.2 U/ml). […] Adenovirus infected ECs were plated on to transwells 24 hours after the above infection procedure and treated in the same manner as uninfected cells.

protein kinase Cζ [2] = experiment: Immunofluorescence staining of protein kinase Cζ localisation in endothelial cell monolayers; assay type: cell-based, human; conditions: for effect on thrombin stimulated protein kinase Cζ relocalisation to the membrane: then thrombin 0.2 U/ml
Protocol: (§1) Human umbilical vein endothelial cells were grown in M119 medium with 20% foetal calf serum (FCS) as described (Litwin, M., Clark, K., Noack, L., Furze, J., Berndt, M., Albelda, S., Vadas, M., Gamble, J. (1997) J Cell Biol. 139:219-28). Cells were used at passage 4 or less. For infection with adenoviral constructs, cells were grown to 80% confluence and exposed to 2.5×10^6 plaque forming units/25 cm^2 culture area for 2 hours in M119 medium with 2% FCS and a further 22 hours with 20% FCS.
(§2) 6×10^4 endothelial cells were cultured in fibronectin coated glass LabTek chamber slides (Nalge Nunc International, Naperville, Ill., USA) and incubated for 3 days prior to staining. Cells were then treated with angiopoietin-1, thrombin and/or bisindolylmaleimnide I, as required. Cells were washed once in PBS, fixed in 4% paraformnaldehyde/PBS for 5 minutes, permeabilized with acetone for 5 min at −20° C. and then washed twice with PBS. The fixed cells were incubated with rabbit anti-protein kinase Cζ immunoaffmity purified IgG or anti-protein kinase Cλ (BD Transduction Laboratories, San Diego, Calif., USA) overnight at 4° C. followed by FITC-conjugated anti-rabbit antibody (Rockland, Gilbertsville Pa., USA). Coverslips were mounted using fluorescent microscopy mounting medium (Dako Corp., Carpinteria, Calif., USA). Cells were imaged by epifluorescent microscopy on an Olympus BX-51 microscope (Olympus, Hamburg, Germany) equipped with excitation filters for fluorescein (494 nm) acquired to a Photometrics Cool Snap FX charge-coupled device camera (Roper Scientific GmbH, Germany). Images were adjusted for brightness and contrast using V^++ software (Digital Optics Ltd., Aucldand, New Zealand).

protein kinase Cζ [3] = experiment: Immunoblotting for phosphorylated Thr410 of over-expressed protein kinase Cζ in endothelial cells; assay type: cell-based, human; conditions: for effect on thrombin stimulated protein kinase Cζ phosphorylation (Thr410): then thrombin 0.2 U/ml, FLAG-protein kinase Cζ over-expressing cells
Protocol: as §1
Endothelial cells were plated into fibronectin coated flasks before infection as above. Following infection, cells were serum depleted (0.2% FCS) overnight. Cells were then treated with angiopoietin-1, thrombin and/or bisindolylmaleimide I, as required, lysed in ice-cold lysis buffer (50 mM Tris.HCl, pH 7.4, with 1% NP-40, 150 mM NaCl, 2 mM EGTA, 1 mM NaPO4, 100 mM NaF, 10 mM sodium pyrophosphate and protease inhibitor cocktail). Protein concentrations were assayed using Bradford Reagent (BioRad, Hercules, Calif., USA). Equal amounts of protein were loaded onto 10% acrylamide gels, separated by SDS-PAGE, transferred to PVDF membrane, blocked with 5% skim milk powder and 0.1% Triton-X100 in phosphate buffered saline, and probed with a polyclonal rabbit antibody directed against phosphorylated Thr410 of the activation loop of protein kinase Cζ (Chou, M. M., Hou, W., Johnson, J., Graham, L. K., Lee, M. H., Chen, C. S., Newton, A. C., Schaffhausen, B. S., Toker, A. (1998) Curr Biol. 8:1069-77). This antibody was a generous gift from Dr Alex Toker. After washing, membranes were incubated with anti-rabbit secondary antibody and reactive bands were detected by chemiluminescence (ECL Western Blotting Detection Reagents, Amersham Pharmacia Biotech, Little Chalfont, England, UK). Membranes were stripped using stripping buffer (Re-Blot Plus Western Blot Recycling Kit, Chemicon, Temecula Calif., USA) and re-probed with rabbit anti-protein kinase Cζ immunoaffinity purified IgG (Upstate Biotechnology, Lake Placid N.Y., USA).

[4] = tested on: protein kinase C isoforms; conditions: cited from earlier work
protein kinase Cλ = experiment: Immunofluorescence staining of protein kinase Cλ localisation in endothelial cell monolayers; assay type: cell-based, human; conditions: thrombin 0.2 U/ml alone, confluent monolayers
Protocol: as §1
as §2, with “Cells were imaged by epifluorescent microscopy on an Olympus BX-51 microscope (Olympus, Hamburg, Germany) equipped with excitation filters for fluorescein (494 nm) acquired to a Photometrics Cool Snap FX charge-coupled device camera (Roper Scientific GmbH, Germany). Images were adjusted for brightness and contrast using V^++ software (Digital Optics Ltd., Aucldand, New Zealand).” left out

O=S(=O)(NCCNC/C=C/c1ccc(Br)cc1)c1cccc2cnccc12 [H-89]
effect on thrombin stimulated endothelial cell permeability increase ([1]; 50 nM, pre-treated 15 mins): has no effect on thrombin induced permeability changes; also recorded: has no effect on thrombin-stimulated permeability increases

CN(C)CCCn1cc(C2=C(c3c[nH]c4ccccc34)C(=O)NC2=O)c2ccccc21.Cl [bisindolylmaleimide I, Bisindolylmaleimide I hydrochloride]
effect on thrombin stimulated endothelial cell permeability increase ([1]; 100 nM, pre-treated 15 mins): had no effect on the thrombin-induced increases of endothelial cell permeability
effect on thrombin stimulated endothelial cell permeability increase ([1]; 6 μM, pre-treated 15 mins, hydrochloride): inhibited thrombin stimulation of endothelial cell permeability
effect on thrombin stimulated endothelial cell permeability increase ([1]; 6 μM, pre-treated 15 mins, listed as Bisindolylmaleimide I, hydrochloride): blocks thrombin-stimulated permeability increases
effect on thrombin stimulated protein kinase Cζ relocalisation to the membrane (protein kinase Cζ [2]; 6 μM for 15 minutes): dramatically decreased
effect on thrombin stimulated protein kinase Cζ phosphorylation (Thr410) (protein kinase Cζ [3]; 6 μM for 15 minutes): inhibited thrombin stimulated protein kinase Cζ phosphorylation
protein kinase C isoforms inhibited ([4]; 100 nM): inhibits classical and novel protein kinase C isoforms
protein kinase C isoforms inhibited ([4]; 6 μM): inhibits all protein cinase C isoforms

Calphostin C
effect on thrombin stimulated endothelial cell permeability increase ([1]; 100 nM, pre-treated 15 mins): had no effect on the thrombin-induced increases of endothelial cell permeability; also recorded: does not block thrombin-stimulated permeability increases

Thrombin
protein kinase Cζ localisation (protein kinase Cζ [2]; thrombin 0.2 U/ml alone, confluent monolayers): localized to the cell membrane
phosphorylation of over-expressed protein kinase Cζ (Thr410) (protein kinase Cζ [3]; thrombin 0.2 U/ml for 15 minutes alone): increased the phosphorylation of over-expressed protein kinase Cζ
protein kinase Cλ localisation (protein kinase Cλ): remained evenly distributed

B1: Angiopoietin-1 (protein, UniProt Q15389 16-498, looked up)
Angiopoietin-1: HIGCSNQRRSPENSGRRYNRIQHGQCAYTFILPEHDGNCRESTTDQYNTNALQRDAPHVEPDFSSQKLQHLEHVMENYTQWLQKLENYIVENMKSEMAQIQQNAVQNHTATMLEIGTSLLSQTAEQTRKLTDVETQVLNQTSRLEIQLLENSLSTYKLEKQLLQQTNEILKIHEKNSLLEHKILEMEGKHKEELDTLKEEKENLQGLVTRQTYIIQELEKQLNRATTNNSVLQKQQLELMDTVHNLVNLCTKEGVLLKGGKREEEKPFRDCADVYQAGFNKSGIYTIYINNMPEPKKVFCNMDVNGGGWTVIQHREDGSLDFQRGWKEYKMGFGNPSGEYWLGNEFIFAITSQRQYMLRIELMDWEGNRAYSQYDRFHIGNEKQNYRLYLKGHTGTAGKQSSLILHGADFSTKDADNDNCMCKCALMLTGGWWFDACGPSNLNGMFYTAGQNHGKLNGIKWHYFKGPSYSLRSTTMMIRPLDF
notes: Angiopoietin-1, obtained from Regeneron Inc
effect on thrombin stimulated endothelial cell permeability increase ([1]; 0.1 μg/ml, pre-treated 30 min): inhibiting thrombin stimulated endothelial cell permeability increases
effect on thrombin stimulated endothelial cell permeability increase ([1]; 0.1 μg/ml, pre-treated 30 min, listed as Angiopoietin-1): can inhibit the thrombin-induced increase of endothelial cell permeability
effect on thrombin stimulated protein kinase Cζ relocalisation to the membrane (protein kinase Cζ [2]; 0.1 μg/ml for 30 minutes): dramatically decreased; also recorded: blocking thrombin stimulated protein kinase Cζ relocalisation
effect on thrombin stimulated protein kinase Cζ phosphorylation (Thr410) (protein kinase Cζ [3]; 0.1 μg/ml for 30 minutes): inhibited thrombin stimulated protein kinase Cζ phosphorylation; also recorded: blocking thrombin stimulated protein kinase Cζ phoshorylation
